Assay: maximum solubility in PBS + solutol
Type: physicochemical
Conditions: aqueous with cosolvent or surfactant or cyclodextrin

Row | solubility (in PBS+2 wt % solutol) [µg/mL] | solubility (in PBS+5 wt % solutol) [µg/mL] | SMILES
1 | 310 | – | CCN1C[C@@H]2C[C@@H](OC)c3c(C(=O)NCc4ccc(F)cc4F)c(=O)c(O)c(n32)C1=O [active ingredient 2, (3aS,5R)-N-(2,4-difluorobenzyl)-2-ethyl-8-hydroxy-5-methoxy-1,7-dioxo-2,3,3a,4,5,7-hexahydro-1H-pyrazino[2,1,6-cd]indolizine-6-carboxamide]
2 | 150 | 260 | C[C@]12CCCO[C@H]1Cn1cc(C(=O)NCc3ccc(F)cc3F)c(=O)c(O)c1C2=O [active ingredient 1, (4aS,11aR)-N-(2,4-difluorobenzyl)-6-hydroxy-4a-methyl-5,7-dioxo-2,3,4,4a,5,7,11,11a-octahydropyrano[3,2-b]quinolizine-8-carboxamide]

— patent US20190216725A1, “DRUG DELIVERY SYSTEM FOR THE DELIVERY OF INTEGRASE INHIBITORS” (MERCK SHARP & DOHME CORP., priority 2016, published 2019)
